The values that follow come from patent US10087192B2, “2-(het)aryl-substituted fused bicyclic heterocycle derivatives as pesticides” (BAYER CROPSCIENCE AKTIENGESELLSCHSAFT, priority 2015, dated 2018).

Read-outs that look alike come from different tables or passages of the source.

The subject of one data set is Myzus persicae. Description: Myzus persicae spray test (Chinese cabbage leaf discs). It counts as in vivo. The note with it: 500 g/ha, after 6 days. The procedure: Myzus persicae—Spray Test Solvent: 78 parts by weight of acetone • • 1.5 parts by weight of dimethylformamide Emulsifier: alkylaryl polyglycol ether […] To produce further test concentrations, the preparation is diluted with emulsifier-containing water. Discs of Chinese cabbage leaves (Brassica pekinensis) infested by all stages of the green peach aphid (Myzus persicae) are sprayed with an active compound preparation of the desired concentration.

The test system of a further data set is Phaedon cochleariae. Description: Phaedon cochleariae spray test. The class given is in vivo. The conditions noted are these: 500 g/ha, after 7 days, larvae on Chinese cabbage leaf discs. How it is done:
Phaedon cochleariae—Spray Test
(§1) Solvent: 78.0 parts by weight of acetone • • 1.5 parts by weight of dimethylformamide
(§2) Emulsifier: alkylaryl polyglycol ether
(§3) To produce a suitable preparation of active compound, 1 part by weight of active compound is dissolved using the stated parts by weight of solvent and made up with water containing an emulsifier concentration of 1000 ppm until the desired concentration is attained. To produce further test concentrations, the preparation is diluted with emulsifier-containing water.
After 7 days, the efficacy in % is determined. 100% means that all the beetle larvae have been killed; 0% means that no beetle larvae have been killed.

Another data set concerns Tetranychus urticae. Description: Tetranychus urticae spray test, OP-resistant. It counts as in vivo. The conditions noted are these: after 6 days, bean leaf discs. How it is done:
Tetranychus urticae—Spray Test, OP-Resistant
as §1, §2, §3
Discs of bean leaves (Phaseolus vulgaris) infested with all stages of the greenhouse red spider mite (Tetranychus urticae) are sprayed with an active compound preparation of the desired concentration.
After 6 days, the efficacy in % is determined. 100% means that all the spider mites have been killed; 0% means that no spider mites have been killed.

Data set [1] can be described thus: log P by HPLC on reversed-phase column (EEC Directive 79/831 Annex V.A8). It counts as physicochemical. The note with it: pH 7.8, 0.001 molar aqueous ammonium hydrogencarbonate/acetonitrile, 55° C., read-out: log P (neutral). From the text: Called log P (neutral) in the table.
The next data set concerns Spodoptera frugiperda. Kind of data set: Spodoptera frugiperda spray test (maize leaf discs). The conditions noted are these: 500 g/ha, after 7 days, caterpillars on maize leaf discs. The class given is in vivo. How it is done:
Spodoptera frugiperda—Spray Test Solvent: 78.0 parts by weight of acetone • • 1.5 parts by weight of dimethylformamide Emulsifier: alkylaryl polyglycol ether […] To produce further test concentrations, the preparation is diluted with emulsifier-containing water. Leaf discs of maize (Zea mays) are sprayed with an active compound preparation of the desired concentration and, after drying, populated with caterpillars of the armyworm (Spodoptera frugiperda).

The subject of the next data set is Lucilia cuprina. Kind of data set: Lucilia cuprina test. The class given is in vivo. The conditions noted are these: 100 ppm, after 2 days, L1 larvae. The procedure: (§4) Solvent: dimethyl sulphoxide
(§5) To produce a suitable preparation of active compound, 10 mg of active compound are mixed with 0.5 ml of dimethyl sulphoxide, and the concentrate is diluted with water to the desired concentration.
About 20 L1 larvae of the Australian sheep blowfly (Lucilia cuprina) are transferred into a test vessel containing minced horsemeat and the active compound preparation of the desired concentration.
After 2 days, the kill in % is determined. 100% means that all the larvae have been killed; 0% means that no larvae have been killed.

In another data set the test system is Musca domestica. Kind of data set: Musca domestica test. It counts as in vivo. The conditions noted are these: after 2 days, adult houseflies. The procedure:
as §4, §5
Vessels containing a sponge treated with sugar solution and the active compound preparation of the desired concentration are populated with 10 adult houseflies (Musca domestica).
After 2 days, the kill in % is determined. 100% means that all of the flies have been killed; 0% means that none of the flies have been killed.

The test system of data set [2] is Ctenocephalides felis. Description: Ctenocephalides felis oral test. The class given is in vivo. The note with it: 100 ppm in citrated cattle blood, after 2 days. From the text:
Ctenocephalides felis—Oral Test Solvent: dimethyl sulphoxide […] Dilution with citrated cattle blood gives the desired concentration. About 20 unfed adult cat fleas (Ctenocephalides felis) are placed into a chamber which is closed at the top and bottom with gauze. A metal cylinder whose bottom end is closed with parafilm is placed onto the chamber. The cylinder contains the blood/active compound preparation, which can be imbibed by the fleas through the parafilm membrane.

A further data set deals with Boophilus microplus. Kind of data set: Boophilus microplus injection test. The conditions noted are these: 20 μg/animal, assessed after 7 days. It counts as in vivo. The procedure:
Boophilus microplus—Injection Test
as §4
To produce a suitable preparation of active compound, 10 mg of active compound are mixed with 0.5 ml of solvent and the concentrate is diluted with solvent to the desired concentration.
1 μl of the active compound solution is injected into the abdomen of 5 engorged adult female cattle ticks (Boophilus microplus). The animals are transferred into dishes and kept in a climate-controlled room.
Efficacy is assessed after 7 days by laying of fertile eggs. Eggs which are not visibly fertile are stored in a climate-controlled cabinet until the larvae hatch after about 42 days. An efficacy of 100% means that none of the ticks has laid any fertile eggs; 0% means that all the eggs are fertile.

Data set [3] concerns Ctenocephalides felis. Description: Ctenocephalides felis in vitro contact test with adult cat fleas. It counts as in vivo. The note with it: 5 μg/cm^2 (500 g/ha), after 48 h. The procedure: Ctenocephalides felis—In Vitro Contact Tests with Adult Cat Fleas
For the coating of the test tubes, 9 mg of active compound are first dissolved in 1 ml of acetone p.a. and then diluted to the desired concentration with acetone p.a. 250 μl of the solution are distributed homogeneously on the inner walls and the base of a 25 ml test tube by turning and rocking on an orbital shaker (rocking rotation at 30 rpm for 2 h). With 900 ppm active compound solution and internal surface 44.7 cm^2, given homogeneous distribution, an area-based dose of 5 μg/cm^2 is achieved.
After the solvent has evaporated off, the tubes are populated with 5-10 adult cat fleas (Ctenocephalides felis), sealed with a perforated plastic lid and incubated in a horizontal position at room temperature and ambient humidity. After 48 h, efficacy is determined. To this end, the test tubes are stood upright and the fleas are knocked to the base of the tube. Fleas which remain motionless at the base or move in an uncoordinated manner are considered to be dead or moribund.
100% efficacy means that all the fleas were dead or moribund. 0% efficacy means that no fleas were harmed.

Where [4] appears, read: reversed-phase HPLC column (C18).

Turning to `CCS(=O)(=O)c1ccc(-n2ccc(CS(C)(=O)=O)n2)nc1-c1nc2cc(C(F)(F)F)ncc2n1C` [Example 40], the efficacy in the data set on Myzus persicae turned out to be 90%; in the data set with Phaedon cochleariae, 100%; in the data set with Tetranychus urticae (500 g/ha), 90%.
`CCS(=O)(=O)c1ccc(Cl)nc1-c1nc2cc(C(F)(F)F)ncc2n1C` [2-(6-Chloro-3-ethylsulphonyl-2-pyridyl)-3-methyl-6-(trifluoromethyl)imidazo[4,5-c]pyridine]: the chromatographic logP in [1] (setting [4]) was found to be 2.54.
With `CCS(=O)(=O)c1ccc(-c2ccncc2)nc1-c1nc2cc(C(F)(F)F)ncc2n1C` [Example 78], the efficacy in the data set on Phaedon cochleariae came to 100%; in the data set on Tetranychus urticae (100 g/ha), 90%.
With `CCS(=O)(=O)c1ccc(-n2cc(C(F)(F)F)cn2)nc1-c1nc2cc(C(F)(F)F)ncc2n1C` [Example 26, 2-[3-Ethylsulphonyl-6-[4-(trifluoromethyl)pyrazol-1-yl]-2-pyridyl]-3-methyl-6-(trifluoromethyl)-imidazo[4,5-c]pyridine], the efficacy in the data set with Spodoptera frugiperda and in the data set on Phaedon cochleariae was 100% in each case. The chromatographic logP in data set [1] (setting [4]) worked out at 3.34. For the same compound, the “efficacy (kill)” value in the data set with Lucilia cuprina amounted to 100%; with Musca domestica (100 ppm), 90%.
With `CCS(=O)(=O)c1ccc(-c2ccsc2)nc1-c1nc2cc(C(F)(F)F)ncc2n1C` [Example 20, 2-[3-Ethylsulphonyl-6-(3-thienyl)-2-pyridyl]-3-methyl-6-(trifluoromethyl)imidazo[4,5-c]pyridine], the chromatographic logP in data set [1] (setting [4]) turned out to be 3.13. Further, the “efficacy (kill)” value in the data set on Lucilia cuprina turned out to be 100%.
As for `CCS(=O)(=O)c1ccc(-n2cc(C#N)cn2)nc1-c1nc2cc(C(F)(F)F)ncc2n1C` [Example 19], the efficacy was 100% with Spodoptera frugiperda, 90% in the data set with Myzus persicae and 100% in the data set with Phaedon cochleariae. In addition, the “efficacy (kill)” value in the data set with Lucilia cuprina, with Ctenocephalides felis [2] and in the data set on Musca domestica (100 ppm) was 100% in each case.
For `Cn1c(-c2nc(Cl)ccc2Cl)nc2cc(C(F)(F)F)ncc21` [2-(3,6-Dichloro-2-pyridyl)-3-methyl-6-(trifluoromethyl)imidazo[4,5-c]pyridine], the chromatographic logP in data set [1] is 2.81.
With `CCS(=O)(=O)c1ccc(-n2cc(Cl)cn2)nc1-c1nc2cc(C(F)(F)F)ncc2n1C` [Example 36], the efficacy in the data set with Spodoptera frugiperda and in the data set on Phaedon cochleariae was 100% throughout. Besides, the “efficacy (kill)” value in the data set on Lucilia cuprina amounted to 100%; in the data set on Ctenocephalides felis [2], 100%; in the data set on Musca domestica (100 ppm), 85%. Further, the “efficacy (laying of fertile eggs)” value with Boophilus microplus turned out to be 90%.
For `CCS(=O)(=O)c1ccc(-n2ccc(C[S+](C)[O-])n2)nc1-c1nc2cc(C(F)(F)F)ncc2n1C` (centres unmarked) [Example 49], the efficacy with Myzus persicae stood at 90%; in the data set with Phaedon cochleariae, 100%; in the data set on Tetranychus urticae (500 g/ha), 90%.
In the case of `CCS(=O)(=O)c1ccc(-n2ncc(C(F)(F)F)n2)nc1-c1nc2cc(C(F)(F)F)ncc2n1C` [Example 30], the figures for the efficacy with Spodoptera frugiperda, in the data set with Myzus persicae and in the data set with Phaedon cochleariae were 100%, 90% and 100%, respectively. Moreover, the “efficacy (kill)” value in the data set with Lucilia cuprina is 100%. The “efficacy (laying of fertile eggs)” value with Boophilus microplus is listed as 95%.
Turning to `CCS(=O)(=O)c1ccc(-n2cc(C(F)(F)F)nn2)nc1-c1nc2cc(C(F)(F)F)ncc2n1C` [Example 24], the efficacy in the data set on Spodoptera frugiperda worked out at 100%. For the same compound, the “efficacy (kill)” value came out at 100% in the data set with Lucilia cuprina and 80% in the data set with Musca domestica (100 ppm). Further, the “efficacy (laying of fertile eggs)” value in the data set on Boophilus microplus stood at 80%.
In the case of `CCS(=O)(=O)c1ccc(-n2cnc(S(C)(=O)=O)n2)nc1-c1nc2cc(C(F)(F)F)ncc2n1C` [Example 5], the efficacy is recorded as 90% in the data set with Myzus persicae, 100% in the data set with Phaedon cochleariae and 90% with Tetranychus urticae (500 g/ha). Further, the “efficacy (laying of fertile eggs)” value in the data set on Boophilus microplus is 90%.
For `CCS(=O)(=O)c1ccc(-c2cccs2)nc1-c1nc2cc(C(F)(F)F)ncc2n1C` [Example 79], in the data set with Tetranychus urticae (100 g/ha), the efficacy is 90%.
Consider `CCS(=O)(=O)c1ccc(-n2ccc(C#N)n2)nc1-c1nc2cc(C(F)(F)F)ncc2n1C` [Example 22], for which the efficacy in the data set on Spodoptera frugiperda and in the data set on Phaedon cochleariae was 100% each time. Besides, the “efficacy (kill)” value with Lucilia cuprina was found to be 100%; in the data set on Ctenocephalides felis [2] it was 100%; in the data set with Musca domestica (100 ppm), 80%. For the same compound, in the data set with Boophilus microplus, the “efficacy (laying of fertile eggs)” value is 80%.
Take `CCS(=O)(=O)c1ccc(-n2cnc(Cl)n2)nc1-c1nc2cc(C(F)(F)F)ncc2n1C` [Example 18]: the efficacy with Myzus persicae, in the data set with Ctenocephalides felis [3] and in the data set with Phaedon cochleariae was 100% each time. Besides, the “efficacy (kill)” value with Lucilia cuprina, in the data set with Ctenocephalides felis [2] and in the data set with Musca domestica (20 ppm) was 100% each time.
As for `CCS(=O)(=O)c1ccc(-n2cc(C3CC3)cn2)nc1-c1nc2cc(C(F)(F)F)ncc2n1C` [Example 13], the efficacy in the data set with Spodoptera frugiperda and in the data set on Phaedon cochleariae was 100% each time. Further, the “efficacy (kill)” value in the data set with Lucilia cuprina was determined as 100%; in the data set on Ctenocephalides felis [2], 80%; in the data set with Musca domestica (100 ppm), 100%.
`CCS(=O)(=O)c1ccc(-c2ccco2)nc1-c1nc2cc(C(F)(F)F)ncc2n1C` [Example 80]: the efficacy in the data set on Tetranychus urticae (500 g/ha) stood at 90%.
Consider `CNc1cnc(C(F)(F)C(F)(F)F)cc1N` [II-1, N3-Methyl-6-(1,1,2,2,2-pentafluoroethyl)pyridine-3,4-diamine], for which the chromatographic logP in data set [1] (setting [4]) was 1.68.
Still for that read-out and setting: with `CCSc1ccc(Cl)nc1-c1nc2cc(C(F)(F)F)ncc2n1C` [2-(6-Chloro-3-ethylsulphanyl-2-pyridyl)-3-methyl-6-(trifluoromethyl)imidazo[4,5-c]pyridine] the figure was 3.06.
Regarding `CCS(=O)(=O)c1ccc(-n2cc(F)cn2)nc1-c1nc2cc(C(F)(F)C(F)(F)F)ncc2n1C` [Example 59], the efficacy in the data set on Spodoptera frugiperda and in the data set with Phaedon cochleariae was 100% in each case. The “efficacy (kill)” value with Lucilia cuprina stood at 100%; in the data set on Ctenocephalides felis [2], 100%; in the data set with Musca domestica (100 ppm) it was 95%. The “efficacy (laying of fertile eggs)” value in the data set on Boophilus microplus is reported as 90%.
Take `CCS(=O)(=O)c1ccc(-n2ccc(C(F)(F)F)n2)nc1-c1nc2cc(C(F)(F)F)ncc2n1C` [Example 25]: the efficacy in the data set with Spodoptera frugiperda and in the data set on Phaedon cochleariae was 100% throughout. For the same compound, the “efficacy (kill)” value with Lucilia cuprina and in the data set with Ctenocephalides felis [2] was 100% throughout. Besides, in the data set with Boophilus microplus, the “efficacy (laying of fertile eggs)” value was 80%.
